Data reported in patent US8673289B2, “Attenuated uracil auxotroph of an apicomplexan and use thereof” (priority 2007, dated 2014).

What was measured:
Type in all cases: cell-based, Toxoplasma gondii
wild-type T. gondii = test: labeling of parasites with [3H]pyrimidines (pyrimidine salvage); conditions: parasites grown in host cells
Experimental: (§1) Initial experiments primarily involved an enzymatic analysis of drug resistant mutants and the incorporation of various pyrimidine analogs into T. gondii RNA and DNA as an indication of pyrimidine salvage when parasites were grown in either normal host or mutant host cells. All biochemical communications between the parasite and host cells cross the vacuolar membrane which is now known to contain “pores” that permit the passage of nucleobases ranging in molecular mass from 112 daltons up to 244 daltons. The size of the pores is estimated to be approximately 1500 daltons. A T. gondii mutant resistant to 5-fluorodeoxyuridine (FUDR-1) had lost uracil phosphoribosyltransferase (UPRT), an enzyme which is absent in normal host cells (Pfefferkorn (1978) Expt. Parasitol. 44:26-35). […] FUDR-1 mutant parasites were not labeled with [^3H]deoxyuridine. […] FUDR-1 mutant parasites were not labeled with [^3H]uridine. […] FUDR-1 (UPRT knock-out) parasites were not labeled with [^3H]uracil.
Similarly, since uracil only labels the parasite, due to the parasite UPRT, which is absent in the host, the pyrimidine pools of the parasite are also unavailable to the host. Thus, there is no detectable pyrimidine traffic detected between the parasite and host.

FUDR-1 mutant parasites = test: labeling of FUDR-1 (UPRT knock-out) parasites with [3H]pyrimidines
Experimental: as §1

tachyzoites = test: uracil incorporation assay; conditions: [3H]uracil 25 μg/ml
Experimental: Experiments to evaluate the feasibility of constructing pyrimidine auxotrophs of T. gondii were performed. Pyrimidine auxotrophy relies on the ability to feed mutant parasites a pyrimidine nucleobase, such as uracil, in culture medium in amounts that will restore parasite growth to near normal levels. Experiments were therefore conducted to measure whether uracil incorporation into parasites in culture could account for normal replication and normal growth rates. In these experiments, biochemically saturating amounts of [^3H]uracil (25 μg/ml) were added to the growth medium and the quantitative incorporation of label into parasite RNA and DNA was determined over a four hour interval. It was calculated using known values that about 82% of the pyrimidines incorporated into parasite nucleic acids were derived from the uracil which was added to the growth medium as a supplement.
The uracil incorporation assay, results and calculation of uracil incorporation were carried out as follows. Parasites (2.09×10^7) were labeled for 4 hours in medium containing [^3H]uracil at 25 μg per ml or 0.223 μmole per ml, wherein the specific activity of uracil was 34.3 CPM per pmole (CPM=counts per minute). […] Based upon these parameters, it was concluded that 82% of incorporated pyrimidines originate from uracil when it is added to medium.

cps1 and cps2 mutants = test: pyrimidine dependence of cps1 and cps2 replication and plaque formation; conditions: relatively low (thymine, thymidine: moderate) concentrations in medium
Excerpt: However, all of these mutants are somewhat “leaky” in that there was not an absolute growth (replication) dependence on uracil addition to the growth medium for replication. Each of these mutants grows at a moderate (½ of normal) growth rate for the first 2 days following infection of a host cell producing vacuoles that contained 16 to 32 parasites by 3 days post infection. In contrast, RH parasites are lysed out of their primary vacuoles at this time (3 days, >64 parasites). However, the cps mutants slow after 3 days and many parasites never (about ⅓) break out of their primary vacuole. If the primary vacuole breaks, a few parasites can be detected at the site of infection but the infection site always involves a small zone of infection that never forms a visible plaque in a standard 7 day plaque assay. To quantitate growth of these mutants, HFF flasks were inoculated with […] or cps2 parasites (about a multiplicity of infection (MOI) of 1 parasite per 20 HFF cells). After 2 hours of attachment and invasion (all of these mutants have normal attachment and invasion phenotypes as scored by counting percent entered parasites into host cells as a function of time post-inoculation), different concentrations of different pyrimidine compound was added to parallel infected HFF flasks. As a function of time post pyrimidine addition (t=0 hour) the number of parasites per vacuole was scored for 50 vacuoles as described by Fox et al. ((1999) supra). The number of parasite doublings was calculated based on 1 parasite entering each primary vacuole. Thus, 1 doubling=2 parasites per vacuole, 3 doublings=8 parasites per vacuole, and 5 doublings=32 parasites per vacuole. The pyrimidine dependence of cps1 and cps2 replication (doublings of parasites in the vacuole) was plotted graphically. […] The response to thymine and thymidine was additionally informative about the cause of the growth defect in cps1 and cps2. […] This is believed to be caused by the putative defect in the cps1 and cps2 mutants which is a reduced “pool” size of UMP. If UMP pools (ultimately used for RNA and DNA synthesis) are lowered it follows that a resulting decrease in TMP pools is expected since UMP is the precursor of TMP in T. gondii and all other apicomplexan parasites which normally lack TK activity. However, since cps1 and cps2 now express a TK activity carried into the parasite by the p53KOX3-1R plasmid, exemplified by sensitivity of these mutants to ganciclovir (specific to HSV TK), feeding parasites either thymine or thymidine is expected to increase TMP pools. Thus, it appears that moderate levels of thymine or thymidine partially rescue growth of cps1 and cps2 by restoring TMP pools. […] Since the parasite has no mechanism to convert TMP back to UMP there is still a defect in the UMP pool in cps1 and cps2 even with added thymine or thymidine and rescue is never complete. The ability of cps1 and cps2 mutants to form plaques on HFF monolayers in the standard 7 day assay paralleled the pyrimidine dependence of parasite replication in vacuoles.
The cps1 and cps2 mutants were inoculated intraperitoneally (i.p.) into balb/c mice to measure parasite virulence compared to virulent RH parasites. Both mutant cps1 and cps2 had equal virulence as RH parasites in balb/c mice (Jackson Labs), killing all mice within 10 days of i.p. inoculation (group size was four mice per parasite strain). Only 100 parasites (˜50 PFU) of each parasite strain was needed to kill all mice in each group. This pattern of virulence can be understood by re-examining the pyrimidine dependence of cps1 and cps2 growth. Uridine is believed to be the pyrimidine responsible for virulence of cps1 and cps2 in mice. Only 5 μM uridine completely rescues normal plaque size of cps1 and cps2 in vitro. Plasma concentrations of uridine in mice are approximately 5 to 10 μM.

RH parasite = test: plaque formation of RH in very high uracil; conditions: 2000 or 4000 μM uracil
cps1-1 and cps2-1 = test: pyrimidine rescue of cps1-1 and cps2-1 replication and plaque formation
Experimental: No pyrimidine compound at less than 25 μM could rescue plaque formation of cps1-1 or cps2-1. […] Uridine was quite poor at rescue of plaque formation in cps1-1 and cps2-1.
A more detailed growth response to pyrimidine, measured as parasite replications (doublings) was performed for cps1-1 and cps2-1 and compared to the results previously obtained for […]. […] Uridine rescue was poor, with a slow restoration of growth at very high amounts, >400 μM. Deoxyuridine rescue was significant, but again, full growth rate was not restored at any concentration of deoxyuridine. Rescue with uracil was robust, but only in a limited range of concentration. Full restoration of growth rate in cps1-1 and cps2-1 was possible only with uracil added between 200 and 400 μM. […] This phenotype can only be observed in T. gondii pyrimidine auxotroph mutants, not in wild-type parasites with intact de novo pyrimidine synthesis pathways.
The pyrimidine growth dependence of mutant cps1-1 on the pyrimidine salvage pathway was further documented in thymidine interference experiments. Mutant cps1-1 plaques well in 250 μM uracil or deoxyuridine, but not in 1000 μM thymidine. Since thymidine at 1000 μM is known to inhibit approximately 90% of the parasite nucleoside phosphorylase activity specific for cleavage of deoxyuridine (Iltzsch, (1993) J. Euk. Micro. 40:24-28), growth of cps1-1 was tested in combinations of 1000 μM thymidine and 250 μM uracil or 250 μM deoxyuridine. All pyrimidine salvage in T. gondii must pass through uracil and UPRT conversion of uracil to UMP. In contrast, thymidine has no effect on UPRT activity. Thus, if growth of cps1-1 were dependent on deoxyuridine supplementation then replication in this condition may be inhibited by co-supplementing with 1000 μM thymidine. […] Thus, when cps1-1 is grown in deoxyuridine the parasite strictly requires nucleoside phosphorylase activity to cleave deoxyuridine for growth. […] Thus, cps1-1 and cps2-1 rely strictly on pyrimidine salvage enzymes for growth and further, the HFF host cell in vitro cannot supply sufficient pyrimidines for growth of cps1-1 or cps2-1. […] Such potential inhibitors can only be identified using a pyrimidine auxotroph such as provided in the instant invention.
To assess reversion, 10^6 to 10^7 cps1-1 or cps2-1 parasites were periodically inoculated into HFF flasks supplemented with 5 μM uridine. This concentration of uridine is sufficient to rescue the parent strains (cps1 and cps2) of cps1-1 and cps2-1.

## O=c1cc[nH]c(=O)[nH]1 [uracil]
wild-type T. gondii
  incorporation of [3H]-labeled pyrimidine into wild-type parasites: incorporated into wild-type T. gondii
FUDR-1 mutant parasites
  labeling of FUDR-1 mutant parasites with [3H]pyrimidine: not labeled
tachyzoites
  actual incorporation: 0.00032 pmoles pyrimidine per tachyzoite per 4 hours
cps1 and cps2 mutants
  rescue of growth rate / replication of cps1 and cps2: completely rescued
RH parasite
  effect on RH parasite plaques: no effect
cps1-1 and cps2-1; 250 μM supplement
  plaque formation of cps1-1: plaques well
cps1-1 and cps2-1; 36-hour replication assay, HFF
  rescue of replication (doublings) of cps1-1 and cps2-1: robust
cps1-1 and cps2-1; 2000 or 4000 μM uracil
  plaque formation of cps1-1, cps2-1, cps1 and cps2: do not even form plaques
cps1-1 and cps2-1; cps1-1, cps2-1
  uracil concentration above which growth rate is reduced significantly: > 500 µM
cps1-1 and cps2-1; plaque assay
  rescue of plaque formation of cps1-1 and cps2-1: significant growth rescue
cps1-1 and cps2-1; pyrimidine concentrations up to 200 μM
  rescue of plaque formation of cps1-1 and cps2-1: completely rescued
